In ChEMBL document CHEMBL2151017, “Inhibition of α-glucosidase and α-amylase by diaryl derivatives of imidazole-thione and 1,2,4-triazole-thiol” (Eur J Med Chem, 2011):
The source made the active and inactive calls. No cut-off for these calls is given here.

Columns and labels:
[1] = species on record: Oryctolagus cuniculus; assay: Inhibition of Spanish V-line rabbit liver alpha-glucosidase using maltose as substrate assessed per mg protein at 48 uM by Lineweaver-Burk plot ( RVb = 53 +/- 5 10^-3 uM/min/mg protein )
[2] = tested on: Oryctolagus cuniculus; assay: In vivo inhibition of Spanish V-line rabbit liver alpha-glucosidase assessed as specific enzyme activity per mg protein using maltose as substrate at 10% LD50, po after 16 hrs; assay type: functional
[3] = Competitive inhibition of Spanish V-line rabbit liver alpha-glucosidase using maltose as substrate by Dixon plot analysis; set-up: species or system Oryctolagus cuniculus
[4] = tested on: Oryctolagus cuniculus; assay: In vivo inhibition of alpha-glucosidase in po dosed Spanish V-line rabbit using maltose as substrate after 24 hrs; assay type: functional, organism-based
[5] = species on record: Oryctolagus cuniculus; assay: Inhibition of Spanish V-line rabbit liver alpha-amylase using starch as substrate assessed per mg protein at 32 uM by Lineweaver-Burk plot ( RVb = 9.0 +/- 0.8 10^-3 uM/min/mg protein )
[6] = Inhibition of Spanish V-line rabbit liver alpha-glucosidase using maltose as substrate after 5 mins by spectrophotometry; set-up: species or system Oryctolagus cuniculus
[7] = tested on: Oryctolagus cuniculus; assay: In vivo inhibition of Spanish V-line rabbit liver alpha-amylase assessed as specific enzyme activity per mg protein using starch as substrate at 10% LD50, po after 96 hrs; assay type: functional
[8] = tested on: Oryctolagus cuniculus; assay: In vivo inhibition of Spanish V-line rabbit liver alpha-amylase assessed as specific enzyme activity per mg protein using starch as substrate at 10% LD50, po after 120 hrs; assay type: functional
[9] = tested on: Oryctolagus cuniculus; assay: In vivo inhibition of Spanish V-line rabbit alpha-amylase using starch as substrate at 25% LD50, po after 24 hrs relative to control; assay type: functional
[10] = species on record: Oryctolagus cuniculus; assay: Inhibition of Spanish V-line rabbit liver alpha-amylase using starch as substrate assessed per mg protein at 48 uM by Lineweaver-Burk plot ( RVb = 9.0 +/- 0.8 10^-3 uM/min/mg protein )
[11] = tested on: Oryctolagus cuniculus; assay: In vivo inhibition of alpha-amylase in po dosed Spanish V-line rabbit using starch as substrate at after 24 hrs; assay type: functional, organism-based
[12] = species on record: Oryctolagus cuniculus; assay: Inhibition of Spanish V-line rabbit liver alpha-amylase using starch as substrate assessed per mg protein at 64 uM by Lineweaver-Burk plot ( RVb = 9.0 +/- 0.8 10^-3 uM/min/mg protein )
[13] = tested on: Oryctolagus cuniculus; assay: In vivo inhibition of Spanish V-line rabbit liver alpha-glucosidase assessed as specific enzyme activity per mg protein using maltose as substrate at 10% LD50, po after 72 hrs; assay type: functional
[14] = species on record: Oryctolagus cuniculus; assay: Inhibition of Spanish V-line rabbit liver alpha-glucosidase using maltose as substrate assessed per mg protein at 16 uM by Lineweaver-Burk plot ( RVb = 53 +/- 5 10^-3 uM/min/mg protein )
[15] = tested on: Oryctolagus cuniculus; assay: In vivo inhibition of Spanish V-line rabbit liver alpha-glucosidase assessed as specific enzyme activity per mg protein using maltose as substrate at 10% LD50, po after 48 hrs; assay type: functional
[16] = species on record: Oryctolagus cuniculus; assay: Competitive inhibition of Spanish V-line rabbit liver alpha-glucosidase using maltose as substrate
[17] = tested on: Oryctolagus cuniculus; assay: In vivo inhibition of Spanish V-line rabbit liver alpha-glucosidase assessed as specific enzyme activity per mg protein using maltose as substrate at 10% LD50, po after 24 hrs; assay type: functional
[18] = species on record: Oryctolagus cuniculus; assay: Reversible Inhibition of Spanish V-line rabbit liver alpha-glucosidase using maltose as substrate compound preincubated for 60 mins by dialysis method
[19] = species on record: Oryctolagus cuniculus; assay: Inhibition of Spanish V-line rabbit liver alpha-glucosidase using maltose as substrate assessed per mg protein at 64 uM by Lineweaver-Burk plot ( RVb = 53 +/- 5 10^-3 uM/min/mg protein )
[20] = tested on: Oryctolagus cuniculus; assay: In vivo inhibition of Spanish V-line rabbit liver alpha-glucosidase assessed as specific enzyme activity per mg protein using maltose as substrate at 10% LD50, po after 8 hrs; assay type: functional
[21] = tested on: Oryctolagus cuniculus; assay: In vivo inhibition of Spanish V-line rabbit liver alpha-amylase assessed as specific enzyme activity per mg protein using starch as substrate at 10% LD50, po after 48 hrs; assay type: functional
[22] = tested on: Oryctolagus cuniculus; assay: In vivo inhibition of Spanish V-line rabbit alpha-glucosidase using maltose as substrate at 25% LD50, po after 24 hrs relative to control; assay type: functional
[23] = species on record: Oryctolagus cuniculus; assay: Inhibition of Spanish V-line rabbit liver alpha-glucosidase using maltose as substrate assessed per mg protein at 32 uM by Lineweaver-Burk plot ( RVb = 53 +/- 5 10^-3 uM/min/mg protein )
[24] = species on record: Oryctolagus cuniculus; assay: Reversible Inhibition of Spanish V-line rabbit liver alpha-amylase using starch as substrate compound preincubated for 60 mins by dialysis method
[25] = tested on: Oryctolagus cuniculus; assay: In vivo inhibition of Spanish V-line rabbit liver alpha-glucosidase assessed as specific enzyme activity per mg protein using maltose as substrate at 10% LD50, po after 120 hrs; assay type: functional
[26] = tested on: Oryctolagus cuniculus; assay: In vivo inhibition of Spanish V-line rabbit liver alpha-amylase assessed as specific enzyme activity per mg protein using starch as substrate at 10% LD50, po after 16 hrs; assay type: functional
[27] = Toxicity in po dosed Spanish V-line rabbit assessed as mortality after 24 hrs; assay type: organism-based, Oryctolagus cuniculus; conditions: in vivo
[28] = tested on: Oryctolagus cuniculus; assay: In vivo inhibition of Spanish V-line rabbit liver alpha-amylase assessed as specific enzyme activity per mg protein using starch as substrate at 10% LD50, po after 72 hrs; assay type: functional
[29] = Competitive inhibition of Spanish V-line rabbit liver alpha-glucosidase using maltose as substrate by Lineweaver-Burk plot analysis; set-up: species or system Oryctolagus cuniculus
[30] = species on record: Oryctolagus cuniculus; assay: Inhibition of Spanish V-line rabbit liver alpha-amylase using starch as substrate assessed per mg protein at 16 uM by Lineweaver-Burk plot ( RVb = 9.0 +/- 0.8 10^-3 uM/min/mg protein )
[31] = Non-competitive inhibition of Spanish V-line rabbit liver alpha-amylase using starch as substrate by Dixon plot analysis; set-up: species or system Oryctolagus cuniculus
[32] = tested on: Oryctolagus cuniculus; assay: In vivo inhibition of Spanish V-line rabbit liver alpha-glucosidase assessed as specific enzyme activity per mg protein using maltose as substrate at 10% LD50, po after 96 hrs; assay type: functional
[33] = species on record: Oryctolagus cuniculus; assay: Non-competitive inhibition of Spanish V-line rabbit liver alpha-amylase using starch as substrate
[34] = Inhibition of Spanish V-line rabbit liver alpha-amylase using starch as substrate after 5 mins by spectrophotometry; set-up: species or system Oryctolagus cuniculus
[35] = tested on: Oryctolagus cuniculus; assay: In vivo inhibition of Spanish V-line rabbit liver alpha-amylase assessed as specific enzyme activity per mg protein using starch as substrate at 10% LD50, po after 8 hrs; assay type: functional
[36] = tested on: Oryctolagus cuniculus; assay: In vivo inhibition of Spanish V-line rabbit liver alpha-amylase assessed as specific enzyme activity per mg protein using starch as substrate at 10% LD50, po after 24 hrs; assay type: functional
[37] = Non-competitive inhibition of Spanish V-line rabbit liver alpha-amylase using starch as substrate by Lineweaver-Burk plot analysis; set-up: species or system Oryctolagus cuniculus
[38] = species on record: Oryctolagus cuniculus; assay: Inhibition of Spanish V-line rabbit liver alpha-glucosidase using maltose as substrate assessed per mg protein at 16 uM by Lineweaver-Burk plot ( RVb = 55 +/- 5 10^-3 uM/min/mg protein )
[39] = species on record: Oryctolagus cuniculus; assay: Inhibition of Spanish V-line rabbit liver alpha-glucosidase using maltose as substrate assessed per mg protein at 48 uM by Lineweaver-Burk plot ( RVb = 55 +/- 5 10^-3 uM/min/mg protein )
[40] = species on record: Oryctolagus cuniculus; assay: Inhibition of Spanish V-line rabbit liver alpha-amylase using starch as substrate
[41] = species on record: Oryctolagus cuniculus; assay: Inhibition of Spanish V-line rabbit liver alpha-glucosidase using maltose as substrate assessed per mg protein at 64 uM by Lineweaver-Burk plot ( RVb = 55 +/- 5 10^-3 uM/min/mg protein )
[42] = species on record: Oryctolagus cuniculus; assay: Inhibition of Spanish V-line rabbit liver alpha-glucosidase using maltose as substrate assessed per mg protein at 32 uM by Lineweaver-Burk plot ( RVb = 55 +/- 5 10^-3 uM/min/mg protein )
[43] = species on record: Oryctolagus cuniculus; assay: Inhibition of Spanish V-line rabbit liver alpha-amylase using starch as substrate assessed per mg protein at 12 uM by Lineweaver-Burk plot ( RVb = 9.0 +/- 0.8 10^-3 uM/min/mg protein )
[44] = species on record: Oryctolagus cuniculus; assay: Inhibition of Spanish V-line rabbit liver alpha-glucosidase using maltose as substrate assessed per mg protein at 12 uM by Lineweaver-Burk plot ( RVb = 55 +/- 5.2 10^-3 uM/min/mg protein )
[45] = species on record: Oryctolagus cuniculus; assay: Inhibition of Spanish V-line rabbit liver alpha-amylase using starch as substrate assessed per mg protein at 24 uM by Lineweaver-Burk plot ( RVb = 9.0 +/- 0.8 10^-3 uM/min/mg protein )
[46] = Non-competitive inhibition of Spanish V-line rabbit liver alpha-glucosidase using maltose as substrate by Lineweaver-Burk plot analysis; set-up: species or system Oryctolagus cuniculus
[47] = species on record: Oryctolagus cuniculus; assay: Non-competitive inhibition of Spanish V-line rabbit liver alpha-glucosidase using maltose as substrate
[48] = species on record: Oryctolagus cuniculus; assay: Inhibition of Spanish V-line rabbit liver alpha-glucosidase using maltose as substrate assessed per mg protein at 48 uM by Lineweaver-Burk plot ( RVb = 55 +/- 5.2 10^-3 uM/min/mg protein )
[49] = species on record: Oryctolagus cuniculus; assay: Inhibition of Spanish V-line rabbit liver alpha-amylase using starch as substrate assessed per mg protein at 36 uM by Lineweaver-Burk plot ( RVb = 9.0 +/- 0.8 10^-3 uM/min/mg protein )
[50] = species on record: Oryctolagus cuniculus; assay: Inhibition of Spanish V-line rabbit liver alpha-glucosidase using maltose as substrate assessed per mg protein at 36 uM by Lineweaver-Burk plot ( RVb = 55 +/- 5.2 10^-3 uM/min/mg protein )
[51] = Non-competitive inhibition of Spanish V-line rabbit liver alpha-glucosidase using maltose as substrate by Dixon plot analysis; set-up: species or system Oryctolagus cuniculus
[52] = species on record: Oryctolagus cuniculus; assay: Inhibition of Spanish V-line rabbit liver alpha-glucosidase using maltose as substrate assessed per mg protein at 24 uM by Lineweaver-Burk plot ( RVb = 55 +/- 5.2 10^-3 uM/min/mg protein )

| SMILES | Activity [2] [µM/min] | inhibition [4] | IC50 [6] [µM] | Activity [7] [µM/min] | Activity [8] [µM/min] | inhibition (INH) [9] [%] | Vmax [10] [nM/min] | inhibition [11] | Activity [13] [µM/min] | Activity [15] [µM/min] | Activity [17] [µM/min] | inhibition [18] | Activity [20] [µM/min] | Activity [21] [µM/min] | inhibition (INH) [22] [%] | inhibition [24] | Activity [25] [µM/min] | Activity [26] [µM/min] | LD50 at 24 h [27] [mg/kg] | Activity [28] [µM/min] | further results |
| --- | --- | --- | --- | --- | --- | --- | --- | --- | --- | --- | --- | --- | --- | --- | --- | --- | --- | --- | --- | --- | --- |
| Sc1nnc(-c2ccccc2)n1-c1ccccc1 | 16.7 | Dose-dependent effect | 67 | 4.6 | 4.7 | 46 | 5.4 | Dose-dependent effect | 18.5 | 16.1 | 15.4 | Active | 18.6 | 4 | 50 | Active | 19.9 | 4.1 | 107 | 4.3 | Vmax [1]: 16.6 nM/min; Ki [3]: 38 µM; Vmax [5]: 6.3 nM/min; Vmax [12]: 5.3 nM/min; Vmax [14]: 20 nM/min; inhibition [16]: Dose-dependent effect; Vmax [19]: 12.5 nM/min; Vmax [23]: 18 nM/min; Ki [29]: 42 µM; Vmax [30]: 8 nM/min; Ki [31]: 65 µM; Activity [32]: 19.8 µM/min; inhibition [33]: Dose-dependent effect; IC50 [34]: 73 µM; Activity [35]: 4.5 µM/min; Activity [36]: 3.7 µM/min; Ki [37]: 72 µM |
| Oc1ccccc1-c1nnc(S)n1-c1ccccc1 | 14.2 | Dose-dependent effect | 105 | 4.8 | 5.1 | 27 | 9.5 | Dose-dependent effect | 15.6 | 14.2 | 13.1 | Active | 15.6 | 4.4 | 57 | Active | 18.8 | 4.4 | 155 | 4.6 | Ki [3]: 50.8 µM; Vmax [38]: 16.6 nM/min; Vmax [5]: 9.2 nM/min; Vmax [12]: 8.9 nM/min; Vmax [39]: 12.5 nM/min; inhibition [16]: Dose-dependent effect; inhibition [40]: Dose-dependent effect; Vmax [41]: 10.2 nM/min; Vmax [30]: 9.3 nM/min; Activity [32]: 16.2 µM/min; Activity [35]: 4.8 µM/min; Activity [36]: 4.3 µM/min; Vmax [42]: 15.6 nM/min |
| S=C1N=C(c2ccccc2)C(c2ccccc2)=N1 | 15.2 | Dose-dependent effect | 56 | 4.3 | 4.4 | 53 | 5.5 | Dose-dependent effect | 16.9 | 15.6 | 14.3 | Active | 17.6 | 2.9 | 62 | Active | 23.5 | 3.1 | 204 | 3.3 | Vmax [43]: 8.3 nM/min; Vmax [44]: 41 nM/min; Vmax [45]: 7.1 nM/min; Ki [46]: 35 µM; inhibition [47]: Dose-dependent effect; Vmax [48]: 2.4 nM/min; Vmax [49]: 6.3 nM/min; Vmax [50]: 27 nM/min; Ki [31]: 60 µM; Activity [32]: 19.3 µM/min; Ki [51]: 43 µM; inhibition [33]: Dose-dependent effect; IC50 [34]: 47 µM; Activity [35]: 3.8 µM/min; Activity [36]: 2.3 µM/min; Vmax [52]: 33 nM/min; Ki [37]: 63 µM |
